# Results reported in patent US20180368393A1, “PRE- AND POST-STORAGE STRESS RESPONSE CONDITIONING” (CPSI HOLDINGS LLC, priority 2017, published 2018).
# Tests used:
# hamster beta islet cells = assay: Hamster beta islet cell survival following cryopreservation (AlamarBlue assay); type: cell-based; conditions: PW conditioning 24 hours vs non-modulated samples; 10 mM NAC recovery media
# Method: The studies described in example 8 focus on the collection of cell survival data and the impact of post-thaw conditioning on hamster beta islet cells. Specific activities included standard cryopreservation protocol and collection of data (survival and cell death) from samples frozen using 3 unique cryopreservation solutions (media with 0, 5% DMSO and 5% DMSO+NAC) and oxidative stress PW modulation (NAC). Survival was determined at 24 hours post-thaw to allow for the manifestation of any delayed onset cell death pathways to be executed. Further, cell recovery was included to evaluate the long term potency and repopulation potential of the various samples.
# Cell samples were processed according to standard controlled rate suspension freeze protocols and analyzed following 24 hours to 3 days post thaw for survival and recovery. […] To this end, samples were probed with AlamarBlue, incubated for 60 mins in the dark and then assessed using a Tecan micro plate reader. […]
# FIG. 33 illustrates the results of an assessment of beta islet cell survival following cryopreservation in media based solutions with various CPA concentrations. […] Following thawing, samples were placed into culture and assessed for viability at 1 day (24 hours) post-thaw using the AlamarBlue assay. […]
# [1] = system: human smooth muscle cells; assay: Human smooth muscle cell monolayer survival and repopulation following cryopreservation (Calcein-AM assay); type: cell-based
# Method: The device was used to thaw the samples, which were frozen in situ in monolayers in standard 96-well tissue culture plates. Samples were thawed from less than −170° C. to about 4° C. in the 96-well plate format in about 5 mins in a dry clean (“sterile”) environment.
# The study described in example 3.1 focuses on the collection of cell survival data and the impact of post-thaw conditioning on human smooth muscle cells (SMCs). Specific activities included application of the high throughput monolayer sample cryopreservation protocol and collection of data (survival and cell death) from samples frozen using 6 unique cryopreservation solutions (U5, U10, U20, U5G10, U10G10, DP6) and 6 unique modulators (resveratrol, salubrinal, caspase inhibitors (IV, 8, 9) and NAC). Survival was determined at 24 hours post-thaw to allow for the manifestation of any delayed onset cell death pathways to be executed. Further, cell recovery was included to evaluate the long term potency and repopulation potential of the various samples.
# A series of experiments was conducted to evaluate the performance of several solutions (U5, U10, U20, U5G10, U10G10 and DP6) as well as the impact of pre-freeze (PF) and post-warming (PW) conditioning with the apoptotic inhibitors Caspase 8, Caspase 9 and Caspase IV inhibitors. Cell samples were processed using the monolayer CP protocol and analyzed following 24 hours to 7 days post thaw for survival and recovery. These experiments were conducted to evaluate the impact of molecular modulators (inhibitors) during pre-freeze or post-thaw recovery on cell survival when added to the media 1 hour prior to or 24 hour following cryopreservation. […] To this end, samples were probed with Calcein-AM, incubated for 30 mins in the dark and then imaged using a Zeiss Axiovert 200 fluorescence microscope and Axiovision software. Images were taken at 24 hours to 7 days post-thaw to allow for assessment of solution and post-thaw conditioning agent performance.
# As in previous experiments, the 24 hour time point was used for initial survival assessment, as this time point allows for the manifestation of molecular based cell stress-induced death. This provides a more accurate measure of survival than 0 or 1 hour post-thaw assessment, as is typically used. The 3 day time point was selected to assess re-population potential of any surviving cells as an indicator of long term potency.
# For smooth muscle cell pre-freeze (PF) conditioning studies, 1 hour prior to CP addition, culture media was decanted and 100 μL of fresh media supplemented with caspase 8, 9, or IV was added to each respective well. Samples were then incubated at 37° C. for 1 hour, followed by media removal and addition of 100 μL of CP solution to samples followed by cryopreservation as described above. Following preservation, samples were thawed, diluted, and placed into culture. Following 24 hours recovery, cell viability was assessed.
# For smooth muscle cell post-warming (PW) conditioning studies, following thawing and cryopreservation, CP solution was removed or diluted with culture media supplemented with caspase 8, 9, or IV. FIG. 18 illustrates the impact of apoptotic inhibition post-freeze conditioning on human smooth muscle cell survival 1 day following cryopreservation with and without reduced CPA.
# For P/P conditioning studies, 1 hour prior to CP addition, culture media was decanted and 100 μL of fresh media supplement with caspase 8, 9, or IV was added to each respective well.
smiles,measurement,setting,value
"CC(=O)N[C@@H](CS)C(=O)O [NAC, n-acetyl cysteine]",post-thaw survival,hamster beta islet cells,improvement in post-thaw survival
same,repopulation / recovery at 3 days post-thaw,[1]; P/P conditioning with oxidative stress modulators,day 3 recovery reached a monolayer similar to non-treated controls
same,day 1 cell survival,"[1]; P/P conditioning, vs non-conditioned samples",slight to no improvement in cell survival
same,post-thaw cell survival or recovery (overall),[1]; PW conditioning in combination with the other solutions,Broader solution benefit
same,"cell recovery / repopulation, day 3",[1]; PW conditioning with oxidative stress modulators,improved cell recovery
same,day 1 cell survival,"[1]; PW conditioning, vs non-treated matched samples",improvement in cell survival
